Assay results as given in US10875898B2, “Bioactive protein, use thereof and method for its production” (Koppert B.V., priority 2014, dated 2020).

Assays:
Alternaria spp. = assay: spore germination in Potato Dextrose Broth; assay type: cell-based; conditions: 5 μM HYTLO1, 25° C., 24 hours, PDB
Description: (§1) FIG. 3: HYTLO1 antifungal activity. Spore of the pathogens Botrytis cinerea and Alternaria spp. and of the biocontrol agent Trichoderma harzianum strain MK1-KV966 were germinated at 25° C. for 24 hours in Potato Dextrose Broth (PDB) containing 5 μM of HYTLO1 and compared with those germinated in PDB plus the same solvent as the control.

Botrytis cinerea = assay: spore germination in Potato Dextrose Broth; assay type: cell-based; conditions: 5 μM HYTLO1, 25° C., 24 hours, PDB
Description: as §1

B. cinerea [1] = assay: ELISA-based inhibition assay of B. cinerea growth; assay type: cell-based, Botrytis cinerea; conditions: compared to hydrophobins from T. harzianum strains T22 and M10
Source text: FIG. 4. Antifungal effect of HYTLO1 on B. cinerea growth compared to similar hydrophobins purified from T. harzianum strain T22 and T. harzianum strain M10. Assay protocol is described in Lorito M. et al. 1994. Microbiology UK, 140:623-629. Numbers on the left side indicate micro molar concentration of HYTLO1 used. T22 and M10=hydrophobin from strain T22 and M10, respectively. The inhibition of the pathogen colony is indicated by the reduced intensity of the dark color in the wells compared to control (C).

B. cinerea [2] = assay: infection of tomato leaves by the pathogen B. cinerea; assay type: in vivo, Botrytis cinerea; conditions: 10 μL applied to tomato leaf 2 hours before B. cinerea spores; up to 72 hr after inoculation
Description: FIG. 8: Effect of purified HYTLO1 application on the infection of tomato leaves by the pathogen B. cinerea. 10 μL of a solution of HYTLO1 were applied to tomato leaves and 2 hours later 10 μL of a B. cinerea spore suspension 1×10^6/ml were applied on the same spot. The measures were taken 72 hours post inoculation. The standard deviation bars were obtained from at least three different experiments, with five replicates and a total of 15 treated leaves per treatment. In order to determine if purified HYTLO1 is able to protect the plant from foliar infection by a pathogenic fungus, the protein was tested on tomato grown-up plants against Botrytis cinerea.

Arabidopsis thaliana = assay: growth of Arabidopsis; assay type: in vivo; conditions: 0.01 μM drench every two days for one month
Description: (§2) FIG. 12: Effect of purified HYTLO1 on the growth of Arabidopsis (A), percentage seed germination of cucumber (B) and plantlet development of Lotus japonicus (C). A: Arabidopsis thaliana (Columbia-0: Col-0) seeds were sown in Levington's F2 compost plus sand (JFC Munro, Devon; http://www.jfcmonro.com) and chilled for 2 days at 4° C. Plants were grown under short-day conditions (10 h light) in a controlled environment chamber, at 22° C. during the day and 18° C. at night with 60% relative humidity for 5-6 weeks before transplanting. Ten ml of sterile solutions of HYTLO1 were drenched every two days at concentrations 0.072 μg/ml (0.01 μM) for one month in each pot containing 100 ml of soil and 1 Arabidopsis plant. Untreated plants were used as controls. B: Sterile cucumber seeds were placed on magenta box containing half-strength Murashige and Skoog salt (MS) medium (ICN Biomedicals) containing 1% agar and 1.5% sucrose, adjusted to pH 5.7, and vernalized for 2 days at 4° C. in the absence of light. A sterile solutions of HYTLO1 was added to the substrate at final concentration of 10^−8 M before the solidification of agar. C: The same concentration of HYTLO1 was used in the agarized medium used for the L. japonicus test. […]

Cucumis sativus = assay: seed germination of cucumber on MS agar; assay type: in vivo; conditions: 10^−8 M in agar medium
Description: as §2

Lotus japonicus [3] = assay: plantlet development of Lotus japonicus; assay type: in vivo; conditions: 10^−8 M in agarized medium
Description: as §2

Lotus japonicus [4] = assay: Rhizobium lotii on Lotus japonicus in vitro system, plant growth and nodule density; assay type: in vivo; conditions: HYTLO1 0.07 μM, 6PP 0.002 μM, 4 weeks after seeding
Description: Wt+Rhz=treatment with R. loti, Wt-Rhz without R. loti. (D) Growth measured after 4 weeks, in the absence (cont) or presence of Rhizoba R. loti ((+) Rhiz). The purified molecules were added to the sterile MS media and poured into Petri dishes. Data were recorded 4 weeks after seeding of L. japonicus.
FIG. 18. […] (HYT=HYTLO1 at 0.07 μM, 6PP at 0.002 μM, HA=Harzianic Acid at 0.001 μM). Wt=control with R. loti without metabolites. The purified molecules were added to the sterile MS media and poured into Petri dishes. Average number of nodules per cm of root are indicated. Data were recorded 4 weeks after seeding of L. japonicus.
In order to test the effect of HYTLO1, as well as of the secondary metabolites HA and 6PP on the growth promotion activity of Rhizobia, such as Rhizobium sp., on legumimosae plants, we used a standard Rhizobium lotii on Lotus japonicus in vitro system (Barbulova et al., 2005, Functional Plant Biology, 32:529-536). Plant growth and nodule density on the roots were scored four weeks after seeding by comparing untreated controls and the various treatments.

Substance: HYTLO1: about 7 KDa Type II hydrophobin protein from Trichoderma longibrachiatum strain MK1, 71 aa, SEQ ID NO: 1
- effect on germination of spores (Alternaria spp.): direct inhibitory effect
- effect on germination of spores (Botrytis cinerea): direct inhibitory effect
- antifungal effect on B. cinerea growth (B. cinerea [1]): strong antifungal effect
- concentration of HYTLO1 that significantly reduced the size of the necrotic area (B. cinerea [2]): above 1.25 μM
- growth promotion effect (Arabidopsis thaliana): confirmed
- growth promotion effect (percentage seed germination) (Cucumis sativus): confirmed
- growth promotion effect (plantlet development) (Lotus japonicus [3]): confirmed
- plant growth promotion effect of Rhizobia on Lotus japonicus (Lotus japonicus [4]; HA 0.001 μM in MS media): enhances the plant growth promotion effect of Rhizobia
- nodule formation (number of nodules per cm of root) (Lotus japonicus [4]; HA 0.001 μM, with R. loti): Enhancement of nodule formation
